In publication PMC9270351, “Conjugates of urolithin A with NSAIDs, their stability, cytotoxicity, and anti-inflammatory potential” (Scientific Reports, 2022):
Blank lines part the entries; values can stand above or below the molecule they belong to.

Legend:
[1] = system: TNF-α secretion in LPS-stimulated THP-1 derived macrophages; experiment: TNF-α secretion of LPS-stimulated macrophages (ELISA); format: cell-based, human; conditions: over tested concentrations; 1 h treatment, then LPS 3 h
Description: (§1) THP-1 human monocytic cells (DSMZ, Braunschweig, Germany) were studied between passages 4 and 19. Monocytes were differentiated into THP-1 derived macrophages according to modified, previously described protocol. THP-1 monocytes were seeded in 24-well plates at a density of 400,000 cells per well. Cells were incubated at 37 °C under humidified 5% CO2 in the culture medium containing RPMI 1640 without phenol red supplemented with 10% FBS and 2 mM glutamine. In order to differentiate THP-1 monocytes into macrophages, cells were treated with 25 ng/mL PMA followed by 48 h incubation, medium change and an additional 24 h resting. Selected UADs were added to THP-1 derived macrophages at concentrations 2–50 µM and left for 1-h resting. Next, cells were treated with 10 ng/ml LPS. Successful differentiation was confirmed by the presence of distinguishing macrophage markers such as: cell adherence, changes in morphology and response to bacterial LPS stimulation and, consequently, TNF-α secretion.
(§2) After treatment with the test compounds for 1 h and subsequent stimulation with LPS for 3 h (for TNF-α secretion measurements) or 24 h (for IL-10 and IL-6 secretion measurements) supernatants were collected. The secretion of cytokines levels was measured by ELISA kits according to the manufacturer’s instruction (Human TNF-α, Human IL-10 and Human IL-6 ELISA kits, BD Biosciences, Franklin Lakes, NJ, USA). […]

[2] = system: IL-6 secretion in LPS-stimulated THP-1 derived macrophages; experiment: IL-6 secretion of LPS-stimulated macrophages (ELISA); format: cell-based, human; conditions: 1 h treatment, then LPS 24 h
Description: as §1, §2

[3] = system: IL-10 secretion in LPS-stimulated THP-1 derived macrophages; experiment: IL-10 secretion of LPS-stimulated macrophages (ELISA); format: cell-based, human; conditions: over tested concentrations; 1 h treatment, then LPS 24 h
Description: as §1, §2

THP-1 monocytes = experiment: PI flow cytometric assay, cell viability; format: cell-based, human; conditions: 24-h incubation
Description: THP-1 monocytes were seeded in 24-well plates at a density of 400,000. Selected UADs (2–50 µM), control (0.25% DMSO in PBS), UA (50 µM) and parthenolide (25 µM) as a control were added to THP-1 monocytes and left for 24-h incubation at 37 °C under humidified 5% CO2 in the culture medium containing RPMI 1640 without phenol red supplemented with 10% FBS and 2 mM glutamine. After that time, cell suspensions were transferred to Eppendorf tubes, centrifuged, stained with propidium iodide (PI) and analyzed using FACS (MACSQuant® Analyze, Miltenyi Biotec, Bergisch Gladbach, Germany). The cell viability was reported as the percentage of PI(−) cells.

[4] = system: THP-1 derived macrophages; experiment: MTT assay, cell viability; format: cell-based, human; conditions: tested concentration range 2–50 µM; 1 h treatment, then LPS for 3 or 24 h
Description: as §1, with “Successful differentiation was confirmed by the presence of distinguishing macrophage markers such as: cell adherence, changes in morphology and response to bacterial LPS stimulation and, consequently, TNF-α secretion.” left out
THP-1 monocytes were seeded in 24-well plates at a density of 400,000 cells per well and differentiated into THP-1 derived macrophages according to the method described above. […] After medium removal, crystals were dissolved in 400 µL DMSO, 200 µL of solution was transferred to 96-well plate and the absorbance of the solution was measured at λ = 570 nm with the correction to 630 nm using a microplate reader. […]

Compound: Cc1cccc(Nc2ccccc2C(=O)O)c1C [mefenamic acid]
Effect on TNF-α secretion [1]: stimulating effect | Effect on IL-6 secretion ([2]; over tested concentrations): increased IL-6 production in a dose-dependent manner | Effect on IL-10 secretion [3]: did not influence IL-10 secretion

Compound: C=C1C(=O)O[C@H]2[C@H]1CC/C(C)=C/CC[C@@]1(C)O[C@@H]21 [parthenolide]
Cell viability (PI-stained cells, flow cytometry) (THP-1 monocytes; 25 µM, positive control): decreased THP-1 viability

Compound: O=c1oc2cc(O)ccc2c2ccc(O)cc12 [UA, 3,8-dihydroxy-6H-benzo[c]chromen-6-one]
Cell viability (PI-stained cells, flow cytometry) (THP-1 monocytes; 50 µM): Slight, yet statistically significant decline in monocytes viability | Effect on TNF-α secretion [1]: inhibitory effect on TNF-α secretion in a dose-dependent manner | Cell viability / cytotoxic effect (MTT) [4]: no cytotoxic effect was observed | Effect on IL-6 secretion ([2]; 50 µM): inhibited secretion of IL-6 | Effect on IL-10 secretion [3]: did not significantly affect IL-10 secretion

melting point: 114.4 to 115.7 °C
Compound: COc1ccc2c(c1)c(=O)oc1cc(OC(=O)C(C)c3ccc(CC(C)C)cc3)ccc12 (stereo not shown) [Mix 7, 8-methoxy-6-oxo-6H-benzo[c]chromen-3-yl 2-(4-isobutylphenyl)propanoate]

melting point: 186.7 to 189.2 °C
Compound: COc1ccc2c(c1)c(=O)oc1cc(OC(=O)c3ccccc3Nc3cccc(C)c3C)ccc12 [Mix 8, 8-methoxy-6-oxo-6H-benzo[c]chromen-3-yl 2-((2,3-dimethylphenyl)amino)benzoate]

melting point: 207.3 to 208.5 °C
Compound: COc1ccc2c(c1)c(=O)oc1cc(OC(=O)Cc3ccccc3Nc3c(Cl)cccc3Cl)ccc12 [Mix 9, 8-methoxy-6-oxo-6H-benzo[c]chromen-3-yl 2-(2-((2,6-dichlorophenyl)amino)phenyl)acetate]

Compound: COc1ccc2c(c1)c(=O)oc1cc(OC(=O)c3ccccc3OC(C)=O)ccc12 [Mix 10, 8-methoxy-6-oxo-6H-benzo[c]chromen-3-yl 2-acetoxybenzoate]
melting point: 192.6 to 193.5 °C
